Test system: human cord blood-derived CD34+ cells
Assay: Expansion of CD34+ cells from human cord blood-derived CD34+ cells (7-day liquid culture with SCF, flow cytometry count)
Assay type: cell-based
Conditions: 168 h, number of CD34+ cells relative to absence of compound, 100 ng/mL SCF, 7 days, 37° C., read-out: Expansion efficiency; for fold induction at 0.3 µg/mL: 0.3 μg/mL compound; for fold induction at 1 µg/mL: 1 μg/mL compound
Method: Commercially available human cord blood-derived CD34^+ cells (Cambrex Bio Science Walkersville) were plated on a 12-well plate (Corning) (from 5000 to 10000 cells/1 mL/well). As the culture medium, StemSpan SFEM (Stemcell Technologies) containing 100 ng/mL SCF (R&D Systems) was used, and Compounds Nos. 1 to 11 dissolved in dimethyl sulfoxide were added in an amount of 0.1% (v/v) to a final concentration of 0.3 or 1 μg/mL.
After the cells were incubated in liquid culture at 37° C. for 7 days in a CO2 incubator (in an atmosphere containing 5 vol % CO2), the total number of cells was counted by trypan blue assay (Invitrogen) or Flow-Count™ fluorosphere assay (Beckman Coulter). The number of CD34^+ cells was calculated as follows. After the incubation, the cells in the liquid culture was stained with a CD34 antibody (PE, Becton, Dickinson and Company). The stained cells were analyzed with a flow cytometer (Beckman Coulter) to determined the proportion of CD34^+ cells, which was multiplied by the total number of cells to calculate the number of CD34^+ cells.
The expansion efficiencies in the presence of 0.3 μg/mL or 1 μg/mL of compounds based on the number of CD34^+ cells in the absence of them are shown in Table 1 on a scale of A for expansion efficiencies of 3 or greater, B for expansion efficiencies of at least 2 and less than 3, and C for expansion efficiencies of at least 1.4 and less than 2.

Structure (SMILES)	fold induction at 0.3 µg/mL	fold induction at 1 µg/mL
C/C(=N\NC(=O)c1ccc(C(=O)CSc2ccncc2)s1)c1csc(-c2ccc(Cl)c(Cl)c2)c1O [compound 8]	2 to 3	
C/C(=N\NC(=O)c1ccc(C(=O)CSc2cc[n+]([O-])cc2)s1)c1csc(-c2ccc(Cl)c(Cl)c2)c1O [compound 10]		≥ 3
C/C(=N\NC(=O)c1ccc(C(=O)N2CCS(=O)(=O)CC2)s1)c1csc(-c2ccc(Cl)c(Cl)c2)c1O [compound 9]	1.4 to 2	
C/C(=N\NC(=O)c1ccc(C(=O)NN(C)C)s1)c1csc(-c2ccc(Cl)c(Cl)c2)c1O [compound 2]		≥ 3
CC(=O)NC1CCN(C(=O)c2ccc(C(=O)N/N=C(\C)c3csc(-c4ccc(Cl)c(Cl)c4)c3O)s2)C1 (centres unmarked) [compound 1]		≥ 3
C/C(=N\NC(=O)c1ccc(C(=O)N2CC(O)C(O)C2)s1)c1csc(-c2ccc(Cl)c(Cl)c2)c1O (centres unmarked) [compound 4]		≥ 3
C/C(=N\NC(=O)c1ccc(C(=O)Cn2ccc(=O)cc2)s1)c1csc(-c2ccc(Cl)c(Cl)c2)c1O [compound 7]	1.4 to 2	
C/C(=N\NC(=O)c1ccc(C(=O)COc2cc(C)nn2C)s1)c1csc(-c2ccc(Cl)c(Cl)c2)c1O [compound 11]		2 to 3
C/C(=N\NC(=O)c1ccc(C(=O)NNc2ccccn2)s1)c1csc(-c2ccc(Cl)c(Cl)c2)c1O [compound 5]	1.4 to 2	
C/C(=N\NC(=O)c1ccc(C(=O)N(N)Cc2ccncc2)s1)c1csc(-c2ccc(Cl)c(Cl)c2)c1O [compound 6]	1.4 to 2	
C/C(=N\NC(=S)Nc1cccc(C(=O)NCCC(N)=O)c1)c1csc(-c2ccc(Cl)c(Cl)c2)c1O [compound 3]		≥ 3

Reference: patent US20100310536A1, “METHOD FOR EXPANDING HEMATOPOIETIC STEM CELLS USING HETEROCYCLIC COMPOUND” (Nissan Chemical Industries Limited, priority 2007, published 2010)
